From US20240116946A1 (Gilead Sciences, Inc., priority 2022, published 2024)
Like-named read-outs stand apart in the source and are kept apart here.

Key:
[1] = biological target: recombinant SARS-CoV-2 Main protease (Mpro) (Severe acute respiratory syndrome coronavirus 2 (2019-nCoV) (SARS-CoV-2), UniProt P0DTD1); assay: Cov Mpro Biochemical IC50 Assay; details: fluorogenic peptide substrate 40 μM
[2] = system: SARS-CoV-2-NLuc; assay: microbe, parasite or virus in culture; assay type: cell-based, SARS Coronavirus 2
[3] = recombinant SARS-CoV-2 Mpro 7.5 nM, read-out: MPro IC50
[4] = Severe acute respiratory syndrome coronavirus, 48 h; read-out: MPro EC50
[5] = Severe acute respiratory syndrome coronavirus, 48 h, read-out: MPro EC50

SMILES	IC50 [1, 3]	EC50 [2, 4]	EC50 [2, 5]	IC50 ([1]; MPro IC50, recombinant SARS-CoV-2 Mpro 7.5 nM)
COc1cc(-c2cc3[nH]c(=O)n(-c4cncc(Cl)c4C)c(=O)c3s2)c(Cl)cc1F [Example 743, 6-(2-chloro-4-fluoro-5-methoxy-phenyl)-3-(5-chloro-4-methyl-3-pyridyl)-1H-thieno[3,2-d]pyrimidine-2,4-dione]	12.1 nM	16.3 nM	–	–
COc1cc(-c2cc3[nH]c(=O)n(-c4nncc5ccccc45)c(=O)c3s2)c(Cl)cc1F [Example 744]	21.7 nM	85 nM	–	–
COc1cc(-c2cc3[nH]c(=O)n(-c4cnnc5ccccc45)c(=O)c3s2)c(Cl)cc1F [Example 745]	92 nM	257 nM	–	–
COc1cc(-c2cc3[nH]c(=O)n(-c4cc(C)cnn4)c(=O)c3s2)c(Cl)cc1F [Example 746]	4.17 nM	–	54.3 nM	–
COc1cc(-c2cc3[nH]c(=O)n(-c4cncc(C)c4C)c(=O)c3s2)c(Cl)cc1F [Example 747]	4.63 nM	–	4.19 nM	–
COc1cc(-c2cc3[nH]c(=O)n(-c4cc(C(F)(F)F)cnn4)c(=O)c3s2)c(Cl)cc1F [Example 748]	50.2 nM	86.5 nM	–	–
COc1cc(-c2cc3[nH]c(=O)n(-c4cncc5nnn(C)c45)c(=O)c3s2)c(Cl)cc1F [Example 749]	7.35 nM	–	32.6 nM	–
COc1cc(-c2cc3[nH]c(=O)n(-c4cncc5c4n(C)c(=O)n5C)c(=O)c3s2)c(Cl)cc1F [Example 750]	7.76 nM	–	36.6 nM	–
COc1cc(-c2cc3[nH]c(=O)n(-c4cncc5cnn(C)c45)c(=O)c3s2)c(C#N)cc1F [Example 751, 5-fluoro-4-methoxy-2-[3-(1-methylpyrazolo[4,3-c]pyridin-7-yl)-2,4-dioxo-1H-thieno[3,2-d]pyrimidin-6-yl]benzonitrile]	11.1 nM	–	216 nM	–
COc1cc(-c2cc3[nH]c(=O)n(-c4cncc5c4c(C)nn5C)c(=O)c3s2)c(Cl)cc1F [Example 752]	6.96 nM	–	8.41 nM	–
COc1cc(-c2cc3[nH]c(=O)n(-c4cncc(C5CC5)c4)c(=O)c3s2)c(Cl)cc1F [Example 753]	–	14.6 nM	–	6.88 nM
COc1cc(-c2cc3[nH]c(=O)n(-c4cncc5nn(C)c(C)c45)c(=O)c3s2)c(Cl)cc1F [Example 754]	9.21 nM	–	76.3 nM	–
COc1cc(-c2cc3c(s2)c(=O)n(-c2cncc4nc(C5CCC5)n(C)c24)c(=O)n3CCC#N)c(Cl)cc1F [Example 755]	33.3 nM	–	243 nM	–
COc1cc(-c2cc3c(s2)c(=O)n(-c2cncc4nc(-c5ccccc5F)n(C)c24)c(=O)n3CCC#N)c(Cl)cc1F [Example 756]	19.6 nM	–	90.7 nM	–
COc1cc(-c2cc3c(s2)c(=O)n(-c2cncc4nc(-c5coc(C)n5)n(C)c24)c(=O)n3CCC#N)c(Cl)cc1F [Example 757]	11.4 nM	–	40.3 nM	–
COc1cc(-c2cc3c(s2)c(=O)n(-c2cncc4nc(-c5ccc(F)cc5)n(C)c24)c(=O)n3CCC#N)c(Cl)cc1F [Example 758]	18.9 nM	–	142 nM	–
COc1cnc(Cl)c(-c2cc3c(s2)c(=O)n(-c2cncc4ccccc24)c(=O)n3CC2(C#N)CC2)c1 [Example 759]	5.39 nM	–	4.85 nM	–
COc1cnc(Cl)c(-c2cc3[nH]c(=O)n(-c4cncc5cccc(F)c45)c(=O)c3s2)c1 [Example 760]	15.6 nM	–	93.7 nM	–
COc1cnc(C#N)c(-c2cc3[nH]c(=O)n(-c4cncc5cccc(F)c45)c(=O)c3s2)c1 [Example 761]	45.6 nM	398 nM	–	–
COc1cc(-c2cc3[nH]c(=O)n(-c4cncc5cccc(F)c45)c(=O)c3s2)c(C#N)cc1F [Example 762]	7.21 nM	–	20.3 nM	–
COc1cc(-c2cc3[nH]c(=O)n(-c4cncc5ccc(F)cc45)c(=O)c3s2)c(Cl)cc1F [Example 763]	10.2 nM	–	13.4 nM	–
COc1cc(-c2cc3[nH]c(=O)n(-c4cncc5nc(C)n(C)c45)c(=O)c3s2)c(Cl)cc1F [Example 764]	18.1 nM	–	257 nM	–
COc1cc(-c2cc3[nH]c(=O)n(-c4cncc5cnn(C)c45)c(=O)c3cc2OC)c(C#N)cc1F [Example 765]	13.9 nM	–	94.2 nM	–
COc1cc(-c2cc3[nH]c(=O)n(-c4cncc5cnn(C)c45)c(=O)c3cc2F)c(C#N)cc1F [Example 766]	18.9 nM	–	102 nM	–
COc1cc(-c2cc3[nH]c(=O)n(-c4cncc5[nH]cc(C)c45)c(=O)c3s2)c(Cl)cc1F [Example 767]	5.16 nM	–	20.2 nM	–
COc1cc(-c2cc3c(s2)c(=O)n(-c2cncc4[nH]nc(C)c24)c(=O)n3CCC#N)c(Cl)cc1F [Example 768, 3-(6-(2-chloro-4-fluoro-5-methoxyphenyl)-3-(3-methyl-1H-pyrazolo[3,4-c]pyridin-4-yl)-2,4-dioxo-3,4-dihydrothieno[3,2-d]pyrimidin-1(2H)-yl)propanenitrile]	5.26 nM	–	7.16 nM	–

SMILES	IC50 [1, 3]	EC50 [2, 4]	EC50 [2, 5]	IC50 ([1]; MPro IC50, recombinant SARS-CoV-2 Mpro 7.5 nM)
Cn1ncc2cncc(-n3c(=O)c4sc(-c5ccc(F)cc5Cl)cc4n(CCC#N)c3=O)c21 [Example 769, 3-(6-(2-chloro-4-fluorophenyl)-3-(1-methyl-1H-pyrazolo[4,3-c]pyridin-7-yl)-2,4-dioxo-3,4-dihydrothieno[3,2-d]pyrimidin-1(2H)-yl)propanenitrile]	8.55 nM	15.6 nM	–	–
COc1cc(-c2cc3c(s2)c(=O)n(-c2cc(C)cnc2F)c(=O)n3CCC#N)c(Cl)cc1F [Example 770]	6.12 nM	4.8 nM	–	–
Cc1cnc(F)c(-n2c(=O)c3sc(-c4ccccc4Cl)cc3n(CCC#N)c2=O)c1 [Example 771]	3.68 nM	6.03 nM	–	–
Cn1nnc2cncc(-n3c(=O)c4sc(-c5ccccc5Cl)cc4n(CCC#N)c3=O)c21 [Example 772]	15.4 nM	46.9 nM	–	–
Cn1nnc2cncc(-n3c(=O)c4sc(-c5ccc(F)cc5Cl)cc4n(CCC#N)c3=O)c21 [Example 773, 3-[6-(2-chloro-4-fluoro-phenyl)-3-(1-methyltriazolo[4,5-c]pyridin-7-yl)-2,4-dioxo-thieno[3,2-d]pyrimidin-1-yl]propanenitrile]	25.5 nM	–	67.5 nM	–
Cn1ncc2cncc(-n3c(=O)c4sc(-c5cc(Cl)ccc5C#N)cc4n(CCC#N)c3=O)c21 [Example 774]	6.33 nM	–	19.4 nM	–
Cn1ncc2cncc(-n3c(=O)c4sc(-c5ccc(C(F)(F)F)cc5C#N)cc4n(CCC#N)c3=O)c21 [Example 775]	600 nM	–	> 1000 nM	–
COc1cc(-c2cc3c(s2)c(=O)n(-c2cncc4cnn(C)c24)c(=O)n3CCC#N)c(C#N)cn1 [Example 776]	233 nM	–	578 nM	–
COc1cnc(C#N)c(-c2cc3c(s2)c(=O)n(-c2cncc4cnn(C)c24)c(=O)n3CCC#N)c1 [Example 777]	24.6 nM	–	253 nM	–
Cn1ncc2cncc(-n3c(=O)c4sc(-c5cc(F)ccc5C#N)cc4n(CCC#N)c3=O)c21 [Example 778]	19 nM	–	179 nM	–
Cc1cc(-c2cc3c(s2)c(=O)n(-c2cncc4cnn(C)c24)c(=O)n3CCC#N)c(C#N)cc1F [Example 779]	24.1 nM	–	67.3 nM	–
COc1cc(-c2cc3c(s2)c(=O)n(-c2cnc(F)c(C)c2)c(=O)n3CCC#N)c(C#N)cc1F [Example 780]	17.4 nM	–	53.3 nM	–
Cn1ncc2cncc(-n3c(=O)c4sc(-c5ccccc5Cl)cc4n(CCC#N)c3=O)c21 [Example 781]	5.06 nM	–	4.81 nM	–
Cn1ncc2cncc(-n3c(=O)c4sc(-c5ccccc5C#N)cc4n(CCC#N)c3=O)c21 [Example 782, 2-(1-(2-cyanoethyl)-3-(1-methyl-1H-pyrazolo[4,3-c]pyridin-7-yl)-2,4-dioxo-1,2,3,4-tetrahydrothieno[3,2-d]pyrimidin-6-yl)benzonitrile]	15.5 nM	–	39.8 nM	–
Cc1cccc(C#N)c1-c1cc2c(s1)c(=O)n(-c1cncc3cnn(C)c13)c(=O)n2CCC#N [Example 783]	199 nM	–	455 nM	–
Cc1ccc(C#N)c(-c2cc3c(s2)c(=O)n(-c2cncc4cnn(C)c24)c(=O)n3CCC#N)c1 [Example 784]	10.8 nM	–	47.1 nM	–
Cn1ncc2cncc(-n3c(=O)c4sc(-c5ccc(F)cc5C#N)cc4n(CCC#N)c3=O)c21 [Example 785]	37.8 nM	–	137 nM	–
Cc1cc(C#N)c(-c2cc3c(s2)c(=O)n(-c2cncc4cnn(C)c24)c(=O)n3CCC#N)cc1F [Example 786]	27.9 nM	–	165 nM	–
N#CCCn1c(=O)n(-c2cncc(Cl)c2)c(=O)c2sc(-c3ccc(F)cc3Cl)cc21 [Example 787]	13 nM	–	33.2 nM	–
N#CCCn1c(=O)n(-c2cncc(F)c2)c(=O)c2sc(-c3ccc(F)cc3Cl)cc21 [Example 788]	35.6 nM	–	52.2 nM	–
Cn1ncc2cncc(-n3c(=O)c4sc(-c5cc(F)ccc5Cl)cc4n(CCC#N)c3=O)c21 [Example 789]	5.82 nM	–	4.8 nM	–
Cn1ncc2cncc(-n3c(=O)c4sc(-c5cc(F)c(F)cc5Cl)cc4n(CCC#N)c3=O)c21 [Example 790, 3-[6-(2-chloro-4,5-difluoro-phenyl)-3-(1-methylpyrazolo[4,3-c]pyridin-7-yl)-2,4-dioxo-thieno[3,2-d]pyrimidin-1-yl]propanenitrile]	12.6 nM	–	14.3 nM	–
COc1cc(Cl)c(-c2cc3c(s2)c(=O)n(-c2cncc4cnn(C)c24)c(=O)n3CCC#N)cc1Cl [Example 791]	6.98 nM	–	9.04 nM	–
COc1cc(Cl)c(-c2cc3c(s2)c(=O)n(-c2cncc4cnn(C)c24)c(=O)n3CCC#N)cc1F [Example 792]	8.29 nM	–	12.3 nM	–
Cn1ncc2cncc(-n3c(=O)c4sc(-c5cc(Cl)ccc5Cl)cc4n(CCC#N)c3=O)c21 [Example 793]	6.63 nM	–	5.02 nM	–
